PubChem BioAssay (NCI)
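Cells were grown in 96-well plates and exposed to each compound for 48 hours at five concentrations; endpoints were interpolated linearly between bracketing concentrations, or set to the highest concentration if not reached. GI50 is the concentration that inhibits growth by half. The concentration for full growth arrest is given as TGI.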

Assays:
Assay in all cases: NCI tumour cell line growth inhibition, 48 h
786-0 renal = tested on: 786-0 renal
A498 renal = tested on: A498 renal
A549 NSCLC = tested on: A549 NSCLC
ACHN renal = tested on: ACHN renal
BT-549 breast = tested on: BT-549 breast
CAKI-1 renal = tested on: CAKI-1 renal
CCRF-CEM leukemia = tested on: CCRF-CEM leukemia
COLO 205 colon = tested on: COLO 205 colon
DU-145 prostate = tested on: DU-145 prostate
EKVX NSCLC = tested on: EKVX NSCLC
HCC-2998 colon = tested on: HCC-2998 colon
HCT-116 colon = tested on: HCT-116 colon
HCT-15 colon = tested on: HCT-15 colon
HL-60(TB) leukemia = tested on: HL-60(TB) leukemia
HOP-62 NSCLC = tested on: HOP-62 NSCLC
HOP-92 NSCLC = tested on: HOP-92 NSCLC
HS 578T breast = tested on: HS 578T breast
HT29 colon = tested on: HT29 colon
IGROV1 ovarian = tested on: IGROV1 ovarian
K-562 leukemia = tested on: K-562 leukemia
KM12 colon = tested on: KM12 colon
LOX IMVI melanoma = tested on: LOX IMVI melanoma
M14 melanoma = tested on: M14 melanoma
MALME-3M melanoma = tested on: MALME-3M melanoma
MCF7 breast = tested on: MCF7 breast
MDA-MB-231 breast = tested on: MDA-MB-231 breast
MDA-MB-435 = tested on: MDA-MB-435
MOLT-4 leukemia = tested on: MOLT-4 leukemia
NCI-H226 lung = tested on: NCI-H226 lung
NCI-H23 lung = tested on: NCI-H23 lung
NCI-H460 lung = tested on: NCI-H460 lung
NCI-H522 lung = tested on: NCI-H522 lung
NCI/ADR-RES ovarian = tested on: NCI/ADR-RES ovarian
OVCAR-3 ovarian = tested on: OVCAR-3 ovarian
OVCAR-4 ovarian = tested on: OVCAR-4 ovarian
OVCAR-5 ovarian = tested on: OVCAR-5 ovarian
OVCAR-8 ovarian = tested on: OVCAR-8 ovarian
PC-3 prostate = tested on: PC-3 prostate
RPMI-8226 leukemia = tested on: RPMI-8226 leukemia
RXF 393 renal = tested on: RXF 393 renal
SF-268 CNS = tested on: SF-268 CNS
SF-295 CNS = tested on: SF-295 CNS
SF-539 CNS = tested on: SF-539 CNS
SK-MEL-2 melanoma = tested on: SK-MEL-2 melanoma
SK-MEL-28 melanoma = tested on: SK-MEL-28 melanoma
SK-MEL-5 melanoma = tested on: SK-MEL-5 melanoma
SK-OV-3 ovarian = tested on: SK-OV-3 ovarian
SN12C renal = tested on: SN12C renal
SNB-19 CNS = tested on: SNB-19 CNS
SNB-75 CNS = tested on: SNB-75 CNS
SR leukemia = tested on: SR leukemia
SW-620 colon = tested on: SW-620 colon
T-47D breast = tested on: T-47D breast
TK-10 renal = tested on: TK-10 renal
U251 CNS = tested on: U251 CNS
UACC-257 melanoma = tested on: UACC-257 melanoma
UACC-62 melanoma = tested on: UACC-62 melanoma
UO-31 renal = tested on: UO-31 renal

Fc1ccc(Nc2cc(-n3nnc4ccccc43)nc3ccccc23)cc1
GI50 (786-0 renal): 13.1 µM | TGI (786-0 renal): > 49.9 µM | GI50 (A498 renal): 56.4 µM | TGI (A498 renal): > 100 µM | GI50 (A549 NSCLC): 64.4 µM | TGI (A549 NSCLC): > 100 µM | GI50 (ACHN renal): > 62.6 µM | TGI (ACHN renal): > 100 µM | GI50 (BT-549 breast): > 47.9 µM | TGI (BT-549 breast): > 89 µM | GI50 (CAKI-1 renal): 41.5 µM | TGI (CAKI-1 renal): > 68.9 µM | GI50 (CCRF-CEM leukemia): > 100 µM | TGI (CCRF-CEM leukemia): > 100 µM | GI50 (COLO 205 colon): 5.74 µM | TGI (COLO 205 colon): > 100 µM | GI50 (DU-145 prostate): > 56.2 µM | TGI (DU-145 prostate): > 100 µM | GI50 (EKVX NSCLC): 31.8 µM | TGI (EKVX NSCLC): > 82.6 µM | GI50 (HCC-2998 colon): > 100 µM | TGI (HCC-2998 colon): > 100 µM | GI50 (HCT-116 colon): 36.4 µM | TGI (HCT-116 colon): > 100 µM | GI50 (HCT-15 colon): > 100 µM | TGI (HCT-15 colon): > 100 µM | GI50 (HL-60(TB) leukemia): > 100 µM | TGI (HL-60(TB) leukemia): > 100 µM | GI50 (HOP-62 NSCLC): 13.8 µM | TGI (HOP-62 NSCLC): > 34 µM | GI50 (HOP-92 NSCLC): 14.4 µM | TGI (HOP-92 NSCLC): 34 µM | GI50 (HS 578T breast): 18.2 µM | TGI (HS 578T breast): > 68.7 µM | GI50 (HT29 colon): 43.9 µM | TGI (HT29 colon): > 100 µM | GI50 (IGROV1 ovarian): 63.9 µM | TGI (IGROV1 ovarian): > 100 µM | GI50 (K-562 leukemia): > 100 µM | TGI (K-562 leukemia): > 100 µM | GI50 (KM12 colon): > 100 µM | TGI (KM12 colon): > 100 µM | GI50 (LOX IMVI melanoma): 37.7 µM | TGI (LOX IMVI melanoma): > 100 µM | GI50 (M14 melanoma): > 81.7 µM | TGI (M14 melanoma): > 100 µM | GI50 (MALME-3M melanoma): 23.1 µM | TGI (MALME-3M melanoma): > 70.6 µM | GI50 (MCF7 breast): 29.8 µM | TGI (MCF7 breast): > 84.4 µM | GI50 (MDA-MB-231 breast): 8.44 µM | TGI (MDA-MB-231 breast): > 49.2 µM | GI50 (MDA-MB-435): > 50.7 µM | TGI (MDA-MB-435): > 100 µM | GI50 (MOLT-4 leukemia): > 100 µM | TGI (MOLT-4 leukemia): > 100 µM | GI50 (NCI-H226 lung): 19 µM | TGI (NCI-H226 lung): > 69 µM | GI50 (NCI-H23 lung): 49.2 µM | TGI (NCI-H23 lung): > 100 µM | GI50 (NCI-H460 lung): 26.2 µM | TGI (NCI-H460 lung): > 100 µM | GI50 (NCI-H522 lung): 66.3 µM | TGI (NCI-H522 lung): > 100 µM | GI50 (NCI/ADR-RES ovarian): 56.3 µM | TGI (NCI/ADR-RES ovarian): > 100 µM | GI50 (OVCAR-3 ovarian): 28.4 µM | TGI (OVCAR-3 ovarian): > 100 µM | GI50 (OVCAR-4 ovarian): 22.4 µM | TGI (OVCAR-4 ovarian): > 80.4 µM | GI50 (OVCAR-5 ovarian): > 100 µM | TGI (OVCAR-5 ovarian): > 100 µM | GI50 (OVCAR-8 ovarian): 22.2 µM | TGI (OVCAR-8 ovarian): > 79 µM | GI50 (PC-3 prostate): 20.3 µM | TGI (PC-3 prostate): > 100 µM | GI50 (RPMI-8226 leukemia): 19.3 µM | TGI (RPMI-8226 leukemia): > 100 µM | GI50 (RXF 393 renal): 0.781 µM | TGI (RXF 393 renal): 27.6 µM | GI50 (SF-268 CNS): > 40.1 µM | TGI (SF-268 CNS): > 66.3 µM | GI50 (SF-295 CNS): 13.4 µM | TGI (SF-295 CNS): 41.5 µM | GI50 (SF-539 CNS): 24.6 µM | TGI (SF-539 CNS): > 55.6 µM | GI50 (SK-MEL-2 melanoma): 98.8 µM | TGI (SK-MEL-2 melanoma): > 100 µM | GI50 (SK-MEL-28 melanoma): > 56.2 µM | TGI (SK-MEL-28 melanoma): > 100 µM | GI50 (SK-MEL-5 melanoma): 32.2 µM | TGI (SK-MEL-5 melanoma): > 100 µM | GI50 (SK-OV-3 ovarian): 8.41 µM | TGI (SK-OV-3 ovarian): > 100 µM | GI50 (SN12C renal): 30 µM | TGI (SN12C renal): > 69.3 µM | TGI (SNB-19 CNS): > 100 µM | GI50 (SNB-75 CNS): 14.1 µM | TGI (SNB-75 CNS): 45.8 µM | GI50 (SR leukemia): > 100 µM | TGI (SR leukemia): > 100 µM | GI50 (SW-620 colon): > 100 µM | TGI (SW-620 colon): > 100 µM | TGI (T-47D breast): > 100 µM | GI50 (TK-10 renal): 23.5 µM | TGI (TK-10 renal): > 77.8 µM | GI50 (U251 CNS): 27.6 µM | TGI (U251 CNS): > 76.1 µM | GI50 (UACC-257 melanoma): 70.1 µM | TGI (UACC-257 melanoma): > 100 µM | GI50 (UACC-62 melanoma): 36.4 µM | TGI (UACC-62 melanoma): > 69.2 µM | GI50 (UO-31 renal): > 55.9 µM | TGI (UO-31 renal): > 100 µM
